Source: ChEMBL document CHEMBL5154941, “Structural Modifications of Nimodipine Lead to Novel PDE1 Inhibitors with Anti-pulmonary Fibrosis Effects” (J Med Chem, 2022)

Target: Dual specificity calcium/calmodulin-dependent 3',5'-cyclic nucleotide phosphodiesterase 1C (Homo sapiens, UniProt Q14123)
Assay: Inhibition of PDE1C (147 to 531 residues) (unknown origin) expressed in Escherichia coli BL21 at 1000 nM [3H]-cGMP as substrate measured for 15 mins by liquid scintillation counter method relative to control

Dual specificity calcium/calmodulin-dependent 3',5'-cyclic nucleotide phosphodiesterase 1C, sequence (Q14123 whole entry, the tested form may be a part): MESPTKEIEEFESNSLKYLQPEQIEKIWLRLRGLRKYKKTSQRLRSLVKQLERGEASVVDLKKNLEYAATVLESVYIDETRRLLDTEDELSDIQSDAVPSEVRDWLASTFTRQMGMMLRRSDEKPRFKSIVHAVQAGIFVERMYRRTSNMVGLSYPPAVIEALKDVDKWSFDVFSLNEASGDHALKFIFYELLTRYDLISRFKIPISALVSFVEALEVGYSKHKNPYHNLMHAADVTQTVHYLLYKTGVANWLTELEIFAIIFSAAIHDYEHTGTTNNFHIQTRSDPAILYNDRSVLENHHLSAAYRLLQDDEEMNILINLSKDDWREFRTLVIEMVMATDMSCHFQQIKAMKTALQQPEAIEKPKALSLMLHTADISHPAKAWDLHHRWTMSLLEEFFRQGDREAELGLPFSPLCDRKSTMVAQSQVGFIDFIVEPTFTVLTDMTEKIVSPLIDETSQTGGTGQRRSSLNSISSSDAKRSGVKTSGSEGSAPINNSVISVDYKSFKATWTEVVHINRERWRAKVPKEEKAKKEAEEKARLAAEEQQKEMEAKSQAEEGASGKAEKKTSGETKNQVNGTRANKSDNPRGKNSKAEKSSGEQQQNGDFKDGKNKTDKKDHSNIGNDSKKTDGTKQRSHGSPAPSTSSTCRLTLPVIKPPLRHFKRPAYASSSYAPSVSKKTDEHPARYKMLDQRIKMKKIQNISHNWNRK

- inhibition: 7%
Structure (SMILES): COC(=O)C1=C(C)NC(C)=C(C(=O)OC)C1c1cccc(OC)c1
